Assay results reported in ChEMBL document CHEMBL3351573, “Synthesis and cholinesterase inhibition of cativic acid derivatives” (Bioorg Med Chem, 2014).
pIC50, pKi: −log10 of the molar value.

Assays:
[1] = biological target: Cholinesterase (Equus caballus, UniProt P81908)
Description: Inhibition of horse serum BChE by spectrophotometry based Ellman's method

[2] = biological target: T1, Acetylcholinesterase (Torpedo californica, UniProt P04058)
Description: Inhibition of Torpedo californica AChE by spectrophotometry based Ellman's method

[3] = Selectivity index, ratio of IC50 for horse serum BChE to IC50 for Torpedo californica AChE
[4] = Cytotoxicity against human SH-SY5Y cells assessed as LDH release at 1 uM after 1 hr (reference value: -0.78 +/- 3.50%); type: cell-based
[5] = biological target: T1, Acetylcholinesterase; test: Mixed type inhibition of Torpedo californica AChE by Lineweaver-Burk plot; parameters: species or system Tetronarce californica
[6] = biological target: Acetylcholinesterase (Homo sapiens) (UniProt P22303); test: Inhibition of AChE in human SH-SY5Y cells assessed as enzyme activity at 5 uM after 1 hr by Ellman's method; type: cell-based; parameters: scale not given: the % may be the effect or the level left
[7] = biological target: Acetylcholinesterase (Homo sapiens) (UniProt P22303); test: Inhibition of AChE in human SH-SY5Y cells assessed as enzyme activity at 1 uM after 1 hr by Ellman's method; type: cell-based; parameters: scale not given: the % may be the effect or the level left
[8] = Cytotoxicity against human SH-SY5Y cells assessed as change in cell morphology at 1 to 5 uM after 1 hr to 24 hrs by phase contrast microscopy; type: cell-based
[9] = Cytotoxicity against human SH-SY5Y cells assessed as LDH release at 5 uM after 24 hrs (reference value: 0.02 +/- 0.35%); type: cell-based
[10] = Cytotoxicity against human SH-SY5Y cells assessed as LDH release at 5 uM after 1 hr (reference value: -0.78 +/- 3.50%); type: cell-based
[11] = Cytotoxicity against human SH-SY5Y cells assessed as LDH release at 1 uM after 24 hrs (reference value: 0.02 +/- 0.35%); type: cell-based

Sequence of Cholinesterase (P81908 whole entry): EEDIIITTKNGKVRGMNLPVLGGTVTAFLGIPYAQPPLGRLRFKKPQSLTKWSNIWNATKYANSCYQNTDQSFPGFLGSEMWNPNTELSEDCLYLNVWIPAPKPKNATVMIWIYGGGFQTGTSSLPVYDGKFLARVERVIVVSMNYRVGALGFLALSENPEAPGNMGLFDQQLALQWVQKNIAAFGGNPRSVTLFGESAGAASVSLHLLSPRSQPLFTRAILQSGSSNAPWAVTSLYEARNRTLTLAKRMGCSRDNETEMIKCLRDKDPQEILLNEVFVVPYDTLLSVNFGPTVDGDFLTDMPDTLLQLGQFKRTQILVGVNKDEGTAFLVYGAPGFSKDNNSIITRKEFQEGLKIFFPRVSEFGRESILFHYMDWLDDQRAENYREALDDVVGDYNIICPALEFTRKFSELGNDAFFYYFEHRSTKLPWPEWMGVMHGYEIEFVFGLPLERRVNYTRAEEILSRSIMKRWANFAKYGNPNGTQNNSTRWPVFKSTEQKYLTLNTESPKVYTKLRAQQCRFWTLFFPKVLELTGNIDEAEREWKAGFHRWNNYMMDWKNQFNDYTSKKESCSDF
T1 sequence (P04058 whole entry): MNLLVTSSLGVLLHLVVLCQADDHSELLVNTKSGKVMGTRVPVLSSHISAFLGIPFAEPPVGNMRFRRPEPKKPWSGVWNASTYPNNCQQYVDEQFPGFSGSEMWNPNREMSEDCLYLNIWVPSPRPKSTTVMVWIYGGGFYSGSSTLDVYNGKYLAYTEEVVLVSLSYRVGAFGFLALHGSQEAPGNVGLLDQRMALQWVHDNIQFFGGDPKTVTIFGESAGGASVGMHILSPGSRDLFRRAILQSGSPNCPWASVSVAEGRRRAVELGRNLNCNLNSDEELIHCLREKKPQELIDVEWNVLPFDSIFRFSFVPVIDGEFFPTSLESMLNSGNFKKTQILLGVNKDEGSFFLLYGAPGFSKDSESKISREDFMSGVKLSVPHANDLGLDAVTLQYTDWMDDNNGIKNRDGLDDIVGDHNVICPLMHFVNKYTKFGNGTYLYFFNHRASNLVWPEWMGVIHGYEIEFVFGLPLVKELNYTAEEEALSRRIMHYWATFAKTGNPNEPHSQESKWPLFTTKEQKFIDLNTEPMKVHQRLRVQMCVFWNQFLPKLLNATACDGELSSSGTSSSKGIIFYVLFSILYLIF
Sequence of Acetylcholinesterase (Homo sapiens) (P22303 whole entry): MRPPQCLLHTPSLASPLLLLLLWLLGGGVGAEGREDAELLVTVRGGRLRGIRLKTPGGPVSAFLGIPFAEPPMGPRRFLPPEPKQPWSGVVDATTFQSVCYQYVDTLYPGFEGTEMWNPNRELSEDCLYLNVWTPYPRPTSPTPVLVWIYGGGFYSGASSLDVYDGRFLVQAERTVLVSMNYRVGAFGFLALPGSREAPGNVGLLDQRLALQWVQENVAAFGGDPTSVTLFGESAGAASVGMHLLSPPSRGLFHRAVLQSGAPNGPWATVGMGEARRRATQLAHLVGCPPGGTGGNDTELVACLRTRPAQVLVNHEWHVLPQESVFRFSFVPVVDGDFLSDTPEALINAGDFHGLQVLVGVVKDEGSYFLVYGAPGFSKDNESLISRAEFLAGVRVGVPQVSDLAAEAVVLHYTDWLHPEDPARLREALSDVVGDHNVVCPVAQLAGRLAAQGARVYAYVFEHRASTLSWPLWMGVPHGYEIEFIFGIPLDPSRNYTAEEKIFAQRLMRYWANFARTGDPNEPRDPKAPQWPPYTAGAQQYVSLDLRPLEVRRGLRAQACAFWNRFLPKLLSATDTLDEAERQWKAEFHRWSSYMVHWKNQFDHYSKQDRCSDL

C[C@@H](CC[C@H]1C(CO)=CC[C@H]2C(C)(C)CCC[C@]12C)CC(=O)OCCN1CCCC1
pIC50 [1]: 4.77
pIC50 [2]: < 4.30
Ratio IC50 [3]: < 0.3

C[C@@H](CC[C@H]1C(CO)=CC[C@H]2C(C)(C)CCC[C@]12C)CC(=O)OCCCCCCN1CCCCC1
pIC50 [1]: 4.98
pIC50 [2]: 4.84
Ratio IC50 [3]: 0.7

C[C@@H](CC[C@H]1C(CO)=CC[C@H]2C(C)(C)CCC[C@]12C)CC(=O)OCCCCN1CCOCC1
pIC50 [1]: < 4.30
pIC50 [2]: < 4.30

C[C@@H](CC[C@H]1C(CO)=CC[C@H]2C(C)(C)CCC[C@]12C)CC(=O)O
pIC50 [1]: 3.77
pIC50 [2]: 4.68
Ratio IC50 [3]: 8.1

C[C@@H](CC[C@H]1C(CO)=CC[C@H]2C(C)(C)CCC[C@]12C)CC(=O)OCCCCCCN1CCCC1
pIC50 [1]: 4.97
pIC50 [2]: 4.87
Ratio IC50 [3]: 0.8

C[C@@H](CC[C@H]1C(CO)=CC[C@H]2C(C)(C)CCC[C@]12C)CC(=O)OCCCCCN1CCCC1
pIC50 [1]: 4.66
pIC50 [2]: 5.26
Ratio IC50 [3]: 4.1

C[C@@H](CC[C@H]1C(CO)=CC[C@H]2C(C)(C)CCC[C@]12C)CC(=O)OCCCN1CCCC1
pIC50 [1]: 4.36
pIC50 [2]: 4.47
Ratio IC50 [3]: 1.3

CCN(CC)CCCOC(=O)C[C@@H](C)CC[C@H]1C(CO)=CC[C@H]2C(C)(C)CCC[C@]12C
pIC50 [1]: 4.74
pIC50 [2]: 4.93
Ratio IC50 [3]: 1.5

C[C@@H](CC[C@H]1C(CO)=CC[C@H]2C(C)(C)CCC[C@]12C)CC(=O)OCCCCN1CCCC1
Activity [4]: 1.34%
pKi [5]: 5.34
Activity [6]: 30.4%
Activity [7]: 67.3%
pIC50 [1]: 4.99
Activity [8]: Non-toxic
pIC50 [2]: 5.49
Activity [9]: 0.11%
Activity [10]: 2.33%
Activity [11]: -0.02%
Ratio IC50 [3]: 3.2

C[C@@H](CC[C@H]1C(CO)=CC[C@H]2C(C)(C)CCC[C@]12C)CC(=O)OCCCN1CCCCC1
pIC50 [1]: 4.46
pIC50 [2]: 5.21
Ratio IC50 [3]: 5.6

C[C@@H](CC[C@H]1C(CO)=CC[C@H]2C(C)(C)CCC[C@]12C)CC(=O)OCCCCCN1CCOCC1
pIC50 [1]: < 4.30
pIC50 [2]: < 4.30

C[C@@H](CC[C@H]1C(CO)=CC[C@H]2C(C)(C)CCC[C@]12C)CC(=O)OCCN1CCCCC1
pIC50 [1]: < 4.30
pIC50 [2]: < 4.30

C[C@@H](CC[C@H]1C(CO)=CC[C@H]2C(C)(C)CCC[C@]12C)CC(=O)OCCN1CCOCC1
pIC50 [1]: < 4.30
pIC50 [2]: < 4.30

CCN(CC)CCCCCCOC(=O)C[C@@H](C)CC[C@H]1C(CO)=CC[C@H]2C(C)(C)CCC[C@]12C
pIC50 [1]: 4.82
pIC50 [2]: 4.75
Ratio IC50 [3]: 0.9

CCN(CC)CCCCCOC(=O)C[C@@H](C)CC[C@H]1C(CO)=CC[C@H]2C(C)(C)CCC[C@]12C
pIC50 [1]: 4.57
pIC50 [2]: 4.86
Ratio IC50 [3]: 2

C[C@@H](CC[C@H]1C(CO)=CC[C@H]2C(C)(C)CCC[C@]12C)CC(=O)OCCCCCCN1CCOCC1
pIC50 [1]: < 4.30
pIC50 [2]: < 4.30

C[C@@H](CC[C@H]1C(CO)=CC[C@H]2C(C)(C)CCC[C@]12C)CC(=O)OCCCCCN1CCCCC1
pIC50 [1]: 4.61
pIC50 [2]: 4.83
Ratio IC50 [3]: 1.7

CCN(CC)CCCCOC(=O)C[C@@H](C)CC[C@H]1C(CO)=CC[C@H]2C(C)(C)CCC[C@]12C
pIC50 [1]: 4.63
pIC50 [2]: 5.03
Ratio IC50 [3]: 1.8

C[C@@H](CC[C@H]1C(CO)=CC[C@H]2C(C)(C)CCC[C@]12C)CC(=O)OCCCCN1CCCCC1
pIC50 [1]: 4.43
pIC50 [2]: 4.82
Ratio IC50 [3]: 2.5

C[C@@H](CC[C@H]1C(CO)=CC[C@H]2C(C)(C)CCC[C@]12C)CC(=O)OCCCN1CCOCC1
pIC50 [1]: < 4.30
pIC50 [2]: < 4.30

CCN(CC)CCOC(=O)C[C@@H](C)CC[C@H]1C(CO)=CC[C@H]2C(C)(C)CCC[C@]12C
pIC50 [1]: 4.40
pIC50 [2]: < 4.30
Ratio IC50 [3]: < 0.8
